# Measured values taken from patent US20060167115A1, “Compositions for the preservation of timber” (priority 2003, published 2006).
# Key:
# [1] = system: Poria placenta; experiment: Biological screening test (modified EN 113) of TBBA homologues; type: cell-based; settings: 8 weeks exposure; for Protective Effect (retention of the active ingredient in the wood): waterborne
# Protocol: (§1) The following fungi were employed: Coniophora puteana (Brown rot fungus) and Poria placenta (Brown rot fungus). The following preservatives were tested: TBBF (waterborne), TBBE (waterborne), TBBZ (waterborne) and TBBS (waterborne).
# (§2) Five concentrations of each preservative were tested: 3.0%, 2.0%, 1.0%, 0.1% and 0.05% (w/w). All wood blocks were of Scots pine sapwood (Pinus sylvestris) with a volume of 1 cm^3 (10 mm×10 mm×10 mm). Five replicates were used for each test specimen type and six virulence control specimens for each fungus and for each preservative were used as follows: • Treated test specimens: 2 (fungi)×5 (preservative concentrations)×1 (preservative)×5 (replicates)=50 test blocks • Untreated test specimens (for exposure alongside […] test blocks): 2 (fungi)×5 (preservative concentrations)×1 (preservative)×5 (replicates)=50 test blocks • Treated check test specimens: 1 (preservative)×5 (concentrations)×5 (replicates)=25 blocks
# (§3) For all actives/preservatives in the test: • Virulence control specimens: 2 (fungi)×6 (replicates)=12 test blocks
# (§4) After block treatments were completed, all the blocks were sterilized using ionizing radiation according to the conditions set out in European standard EN 113. The incubation period for the test (length of block exposure to the chosen basidiomycete fungi) was 8 weeks.
# (§5) Weight changes for particular waterlogged specimens, when these were clearly unrepresentative of a group, were not included in the mean figures presented.
# [2] = system: Coniophora puteana; experiment: as above; type: cell-based; settings: 8 weeks exposure; for Protective Effect (retention of the active ingredient in the wood): waterborne
# Protocol: as §1, §2, §3, §4, §5
# [3] = TBBZ waterborne 0.05% w/w, retention 0.4 kg/m^3, some waterlogging
# [4] = TBBF waterborne 0.05% w/w, retention 0.4 kg/m^3
# [5] = TBBS waterborne 0.05% w/w, retention 0.4 kg/m^3
# [6] = TBBS waterborne 0.1% w/w, retention 0.8 kg/m^3
# [7] = TBBE waterborne 0.05% w/w, retention 0.4 kg/m^3
structure (smiles),measurement,setting,value
"Oc1c(Br)cc(C2(c3cc(Br)c(O)c(Br)c3)CCCCC2)cc1Br [TBBZ, 4,4′-Cyclohexylidenebis(2,6-dibromophenol)]",Corrected mean loss in mass (%),[1]; [3],0.94 (3.19) (W) %
same,Corrected mean loss in mass (%),"[1]; TBBZ waterborne 0.1% w/w, retention 0.8 kg/m^3",33.47 (15.74) %
same,Corrected mean loss in mass (%),"[1]; TBBZ waterborne 1.0% w/w, retention 5.9 kg/m^3",No Decay
same,Corrected mean loss in mass (%),"[1]; TBBZ waterborne 2.0% w/w, retention 11.6 kg/m^3",No Decay
same,Corrected mean loss in mass (%),"[1]; TBBZ waterborne 3.0% w/w, retention 18.6 kg/m^3",No Decay
same,Protective Effect (retention of the active ingredient in the wood),[1],0.8-5.9 kg/m^3
same,Corrected mean loss in mass (%),[2]; [3],33.57 (7.59) (W) %
same,Corrected mean loss in mass (%),"[2]; TBBZ waterborne 1.0% w/w, retention 6.8 kg/m^3",14.30 (—) %
same,Corrected mean loss in mass (%),"[2]; TBBZ waterborne 2.0% w/w, retention 11.8 kg/m^3",No Decay
same,Corrected mean loss in mass (%),"[2]; TBBZ waterborne 3.0% w/w, retention 17.6 kg/m^3",No Decay
same,Protective Effect (retention of the active ingredient in the wood),[2],0.7-6.8 kg/m^3
"Oc1c(Br)cc(Cc2cc(Br)c(O)c(Br)c2)cc1Br [TBBF, Bis(4-hydroxy-3,5-dibromophenyl)methane]",Corrected mean loss in mass (%),[1]; [4],24.20 (9.63) %
same,Corrected mean loss in mass (%),"[1]; TBBF waterborne 0.1% w/w, retention 0.8 kg/m^3",20.90 (0.23) %
same,Corrected mean loss in mass (%),"[1]; TBBF waterborne 1.0% w/w, retention 7.7 kg/m^3",No Decay
same,Corrected mean loss in mass (%),"[1]; TBBF waterborne 2.0% w/w, retention 15.7 kg/m^3",No Decay
same,Corrected mean loss in mass (%),"[1]; TBBF waterborne 3.0% w/w, retention 20.8 kg/m^3",No Decay
same,Protective Effect (retention of the active ingredient in the wood),[1],0.8-7.7 kg/m^3
same,Corrected mean loss in mass (%),[2]; [4],26.87 (7.38) %
same,Corrected mean loss in mass (%),"[2]; TBBF waterborne 0.1% w/w, retention 0.8 kg/m^3, some waterlogging",24.49 (2.12) (W) %
same,Corrected mean loss in mass (%),"[2]; TBBF waterborne 1.0% w/w, retention 7.9 kg/m^3",No Decay
same,Corrected mean loss in mass (%),"[2]; TBBF waterborne 2.0% w/w, retention 15.1 kg/m^3",No Decay
same,Corrected mean loss in mass (%),"[2]; TBBF waterborne 3.0% w/w, retention 23.1 kg/m^3",No Decay
same,Protective Effect (retention of the active ingredient in the wood),[2],0.8-7.9 kg/m^3
"O=S(=O)(c1cc(Br)c(O)c(Br)c1)c1cc(Br)c(O)c(Br)c1 [TBBS, 4,4′-Sulfonyldi(2,6-dibromophenol)]",Corrected mean loss in mass (%),[1]; [5],No Decay
same,Corrected mean loss in mass (%),[1]; [6],No Decay
same,Corrected mean loss in mass (%),"[1]; TBBS waterborne 1.0% w/w, retention 7.9 kg/m^3",No Decay
same,Corrected mean loss in mass (%),"[1]; TBBS waterborne 2.0% w/w, retention 15.3 kg/m^3",No Decay
same,Corrected mean loss in mass (%),"[1]; TBBS waterborne 3.0% w/w, retention 25.0 kg/m^3",No Decay
same,Protective Effect (retention of the active ingredient in the wood),[1],0.8-7.9 kg/m^3
same,Corrected mean loss in mass (%),[2]; [5],35.02 (6.61) %
same,Corrected mean loss in mass (%),[2]; [6],35.49 (4.92) %
same,Corrected mean loss in mass (%),"[2]; TBBS waterborne 1.0% w/w, retention 7.6 kg/m^3",No Decay
same,Corrected mean loss in mass (%),"[2]; TBBS waterborne 2.0% w/w, retention 16.1 kg/m^3",No Decay
same,Corrected mean loss in mass (%),"[2]; TBBS waterborne 3.0% w/w, retention 20.2 kg/m^3",No Decay
same,Protective Effect (retention of the active ingredient in the wood),[2],0.8-7.6 kg/m^3
"CC(c1cc(Br)c(O)c(Br)c1)c1cc(Br)c(O)c(Br)c1 [TBBE, 4,4′-Ethylidenebis(2,6-dibromophenol)]",Corrected mean loss in mass (%),[1]; [7],No Decay (0.89)
same,Corrected mean loss in mass (%),"[1]; TBBE waterborne 0.1% w/w, retention 0.8 kg/m^3",28.67 (14.13) %
same,Corrected mean loss in mass (%),"[1]; TBBE waterborne 1.0% w/w, retention 8.3 kg/m^3, some waterlogging",No Decay (W)
same,Corrected mean loss in mass (%),"[1]; TBBE waterborne 2.0% w/w, retention 14.4 kg/m^3, some waterlogging",No Decay (W)
same,Corrected mean loss in mass (%),"[1]; TBBE waterborne 3.0% w/w, retention 24.6 kg/m^3",No Decay
same,Protective Effect (retention of the active ingredient in the wood),[1],0.8-8.3 kg/m^3
same,Corrected mean loss in mass (%),[2]; [7],22.96 (4.81) %
same,Corrected mean loss in mass (%),"[2]; TBBE waterborne 0.1% w/w, retention 0.7 kg/m^3",26.57 (2.99) %
same,Corrected mean loss in mass (%),"[2]; TBBE waterborne 1.0% w/w, retention 7.9 kg/m^3",No Decay
same,Corrected mean loss in mass (%),"[2]; TBBE waterborne 2.0% w/w, retention 14.7 kg/m^3",No Decay
same,Corrected mean loss in mass (%),"[2]; TBBE waterborne 3.0% w/w, retention 24.7 kg/m^3",No Decay
same,Protective Effect (retention of the active ingredient in the wood),[2],0.7-7.9 kg/m^3
